Experiment: Maximum solubility of active ingredient in oils
Format: physicochemical
Settings: room temperature, atmospheric pressure
Procedure: The maximum solubility of the active ingredients in the oil phase can be measured in any way which is known in the art. For example, an excess amount of the active ingredient is dissolved in the oil and mixed vigorously at elevated temperature, and then this sample is cooled down to room temperature and maintained for several hours to days. This mixture is centrifuged to separate an oil phase and the concentration of the active ingredient in the separated oil phase is measured using UV spectroscopy.
In the representative examples of the active ingredients of the present invention, the maximum solubilities of phenylethyl resorcinol and 4-(tetrahydro-2H-pyran-4-yl) benzene-1,3-diol in various oils measured at room temperature and under atmospheric pressure are shown below.

CC(c1ccccc1)c1ccc(O)cc1O (stereo not shown) [Phenylethyl Resorcinol]
maximum solubility in oil (Isododecane): 0.043%
maximum solubility in oil (Isopropyl Lauroyl Sarcosinate): 42%
maximum solubility in oil (Isopropyl Myristate): 36%
maximum solubility in oil (Sesamum Indicum (Sesame) Seed Oil): 23%

Source: US20180360705A1, “TOPICAL DELIVERY SYSTEM FOR ACTIVE INREDIENTS” (L'OREAL, priority 2015, published 2018)
